Data as given in PubChem BioAssay AID272 (DTP/NCI, 2004).
Where “and” joins values, the source holds several entries; their conditions need not be identical. Equal entries are not always repeated. Results filed as inconclusive are left out.

System: Lewis lung carcinoma i.m., BDF1 mice, T/C %
Assay: NCI In Vivo Anticancer Drug Screen. Data for tumor model Lewis Lung Carcinoma (intramuscular) in B6D2F1 (BDF1) mice
Details: endpoint: median survival time, higher = longer survival
How it was run: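 Tumour-bearing mice were dosed with compound, and either their survival or their tumour size was measured. Results were expressed relative to vehicle-treated controls as T/C.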

Structure (SMILES): Cc1c(N)nc([C@H](CC(N)=O)NC[C@H](N)C(N)=O)nc1C(=O)N[C@H](C(=O)N[C@H](C)[C@@H](O)[C@H](C)C(=O)N[C@H](C(=O)NCCc1nc(-c2nc(C(=O)NCCC[S+](C)C)cs2)cs1)[C@@H](C)O)C(OC1OC(CO)C(O)C(O)C1OC1OC(CO)C(O)C(OC(N)=O)C1O)c1cnc[nH]1 (stereo partly specified)
- T/C (dose: 5.0 mg/kg/injection, schedule: Q01DX011 (ip), vehicle: saline): 150 % of control
- T/C (dose: 5.0 mg/kg/injection, schedule: Q01DX014 (ip), vehicle: saline): 123 % of control
- T/C (dose: 5.0 mg/kg/injection, schedule: Q09DX009 (ip), vehicle: saline): 150 % of control
- T/C (dose: 6.5 mg/kg/injection, schedule: Q01DX011 (ip), vehicle: saline): 158 % of control
- T/C (dose: 7.5 mg/kg/injection, schedule: Q01DX011 (sc), vehicle: saline): 153 % of control
- T/C (dose: 8.0 mg/kg/injection, schedule: Q01DX011 (ip), vehicle: saline): 150 % of control
- T/C (dose: 8.4 mg/kg/injection, schedule: Q01DX004 (ip), vehicle: saline): 123 % of control
- T/C (dose: 8.4 mg/kg/injection, schedule: Q01DX009 (ip), vehicle: none): 113 % of control and 115 % of control
- T/C (dose: 8.4 mg/kg/injection, schedule: Q09DX009 (ip), vehicle: saline): 116 % of control
- T/C (dose: 10.0 mg/kg/injection, schedule: Q01DX011 (ip), vehicle: saline): 167 % of control
- T/C (dose: 10.0 mg/kg/injection, schedule: Q01DX014 (ip), vehicle: saline): 124 % of control
- T/C (dose: 10.0 mg/kg/injection, schedule: Q04DX003 (ip), vehicle: saline): 107 % of control and 108 % of control
- T/C (dose: 10.8 mg/kg/injection, schedule: Q01DX011 (ip), vehicle: saline): 166 % of control
- T/C (dose: 12.5 mg/kg/injection, schedule: Q04DX003 (ip), vehicle: saline): 122 % of control
- T/C (dose: 14.0 mg/kg/injection, schedule: Q01DX009 (ip), vehicle: none): 159 % of control
- T/C (dose: 14.0 mg/kg/injection, schedule: Q04DX003 (ip), vehicle: saline): 112 % of control
- T/C (dose: 15.0 mg/kg/injection, schedule: Q01DX011 (sc), vehicle: saline): 161 % of control
- T/C (dose: 16.0 mg/kg/injection, schedule: Q01DX011 (ip), vehicle: saline): 150 % of control
- T/C (dose: 18.0 mg/kg/injection, schedule: Q01DX011 (ip), vehicle: saline): 152 % of control and 170 % of control
- T/C (dose: 18.0 mg/kg/injection, schedule: Q04DX003 (ip), vehicle: saline): 124 % of control
- T/C (dose: 20.0 mg/kg/injection, schedule: Q01DX011 (ip), vehicle: saline): 165 % of control
- T/C (dose: 20.0 mg/kg/injection, schedule: Q01DX014 (ip), vehicle: saline): 75 % of control
- T/C (dose: 20.0 mg/kg/injection, schedule: Q04DX003 (ip), vehicle: saline): 157 % of control and 160 % of control
- T/C (dose: 23.0 mg/kg/injection, schedule: Q01DX009 (ip), vehicle: none): 64 % of control and 95 % of control
- T/C (dose: 23.0 mg/kg/injection, schedule: Q04DX003 (ip), vehicle: saline): 112 % of control
- T/C (dose: 23.0 mg/kg/injection, schedule: Q09DX009 (ip), vehicle: saline): 169 % of control
- T/C (dose: 25.0 mg/kg/injection, schedule: Q01DX001 (ip), vehicle: saline): 107 % of control
- T/C (dose: 30.0 mg/kg/injection, schedule: Q01DX011 (ip), vehicle: saline): 166 % of control
- T/C (dose: 36.0 mg/kg/injection, schedule: Q01DX001 (ip), vehicle: saline): 124 % of control
- T/C (dose: 39.0 mg/kg/injection, schedule: Q01DX004 (ip), vehicle: saline): 54 % of control
- T/C (dose: 39.0 mg/kg/injection, schedule: Q04DX003 (ip), vehicle: saline): 103 % of control and 120 % of control
- T/C (dose: 40.0 mg/kg/injection, schedule: Q01DX014 (ip), vehicle: saline): 48 % of control
- T/C (dose: 40.0 mg/kg/injection, schedule: Q04DX003 (ip), vehicle: saline): 97 % of control
- T/C (dose: 51.0 mg/kg/injection, schedule: Q01DX001 (ip), vehicle: saline): 122 % of control
- T/C (dose: 65.0 mg/kg/injection, schedule: Q04DX003 (ip), vehicle: saline): 108 % of control
- T/C (dose: 80.0 mg/kg/injection, schedule: Q04DX003 (ip), vehicle: saline): 60 % of control
